{"source": "patent US9745551B2", "about": "“Mesenchymal-like stem cells derived from human embryonic stem cells, methods and uses thereof” (IMSTEM BIOTECHNOLOGY, INC., priority 2012, dated 2017)", "tested_on": "hES cells", "assay": "Embryoid body (EB) and hemangioblast formation from hESC cultured with BIO", "assay_type": "cell-based, human", "method": "Four hESC cell lines were used: H9 (derived from WiCell Research Institute) (Thomson et al. (1998)); CT2 (derived from University of Connecticut Stem Cell Core (Lin et al. (2010)); MA09 (an FDA approved, clinical-grade cell line derived at Advanced Cell Technology, Inc.) (Klimanskaya et al. (2006)); and ES03-Envy (Envy, a GFP-labeled line, derived at ES International) (Costa et al. (2005)). These cell lines were cultured on Matrigel (BD Biosciences, San Jose, Calif.) and cultured in TeSR1 medium, (Stem Cell Technologies, Vancouver, Canada), with or without adding of 0.05-0.2 μM of BIO (6-Bromoindirubin-3′-oxime (CAS 667463-62-9)).\nhESC cells were then differentiated into EB cells and then enriched for HB as previously described (Lu et al. (2008); Lu et al. (2007)). 50-80% confluent hEs cell on the Matrigel plate were digested with Dispase (1 mg/ml for 5 to 10 minutes) and then washed with EB formation basal medium, HPGM (Lonza, Walksville, Md.), or STEMLINE I/II Hematopoietic Stell Cell Expansion Medium (Sigma, St. Louis, Mo.), or StemSpan H3000 (Stem Cell Technologies, Vancouver, Canada), or IMDM with 10% FBS, or DMEDM/F12 with 10% FBS. Cells were then cultured in EB formation medium supplemented with 50 ng/ml of VEGF (Peprotech) and 50 ng/ml of BMP4 (Stemgent) for 48 hours on ultra-low plate at a density of about 2-3 million cells/ml. After 48 hours, half the culture medium was replaced with fresh EB formation medium plus 25-50 ng/ml of bFGF.\nFour days later, EB cells formed in the medium were harvested and dissociated into single cells with TrypLE (Invitrogen) at 37° C. for 2-3 minutes. Cells were washed and resuspended at 1-5 million cells/ml in EB formation basal medium. The single cell suspension were then mixed at 1:10 with Hemangioblast Growth Medium (Stem Cell Technologies, Vancouver, Canada). […]", "data": [{"smiles": "O=C1Nc2cc(Br)ccc2/C1=C1/Nc2ccccc2/C1=N\\O", "note": "[BIO, (2′Z,3′E)-6-Bromoindirubin-3′-oxime]", "values": [{"measurement": "size and yield of the EB culture", "setting": "BIO in the mTesr1 medium", "result": "increase"}, {"measurement": "total EB number increase", "setting": "BIO in the mTesr1 medium", "result": 3, "unit": "folds"}, {"measurement": "percentage of CD45 cell differentiation (indicator of hemangioblast differentiation efficiency)", "setting": "BIO treatment compared to traditional mTesr1 medium", "result": "tripled"}]}]}
